Experimental data taken from patent US6610846B1, “Heteroaromatic glucokinase activators” (Hoffman-La Roche Inc., priority 1999, dated 2003).

melting point [°C] | SMILES
128 to 130 | O=C(Nc1ncc(CO)s1)C(CC1CCCC1)c1ccc(Cl)c(Cl)c1 (stereo not drawn) [Example 15, 3-Cyclopentyl-2-(3,4-dichlorophenyl)-N-(5-hydroxymethyl-thiazol-2-yl)-propionamide]
50 to 52 | COc1ccc(C(CC2CCCC2)C(=O)Nc2nccs2)cc1OC (stereo not drawn) [Example 113, 3-Cyclopentyl-2-(3,4-dimethoxy-phenyl)-N-thiazol-2-yl-propionamide]
229.1 to 231.7 | CNC(=O)c1ccc(NC(=O)C(CC2CCCC2)c2ccc(Cl)c(Cl)c2)nc1 (stereo not drawn) [Example 103, 6-[3-Cyclopentyl-2-(3,4-dichloro-phenyl)-propionylamino]-N-methyl-nicotinamide]
171 to 174 | O=C(Nc1nccs1)C(CC1CCCC1)c1cccc([N+](=O)[O-])c1 (stereo not drawn) [Example 109, 3-Cyclopentyl-2-(3-nitrophenyl)-N-thiazol-2-yl-propionamide]
90 to 91 | O=C(Nc1nncs1)C(CC1CCCC1)c1ccc(Cl)c(Cl)c1 (stereo not drawn) [Example 83, 3-Cyclopentyl-2-(3,4-dichlorophenyl)-N-[1,3,4]thiadiazol-2-yl-propionamide]
191 to 193 | CS(=O)(=O)c1ccc(C(CC2CCCC2)C(=O)Nc2ccc(C(=O)O)cn2)cc1 (stereo not drawn) [Example 48, 6-[3-Cyclopentyl-2-(4-methanesulfonyl-phenyl)-propionylamino]-nicotinic acid]
177 to 179 | O=C(Nc1nccs1)C(CC1CCCC1)c1cccc(O)c1 (stereo not drawn) [Example 111, 3-Cyclopentyl-2-(3-hydroxy-phenyl)-N-thiazol-2-yl-propionamide]
46.5 to 51.3 | O=C(Nc1cnccn1)C(CC1CCCC1)c1ccc(Cl)c(Cl)c1 (stereo not drawn) [Example 104, 3-Cyclopentyl-2-(3,4-dichloro-phenyl)-N-pyrazin-2-yl-propionamide]
113 to 115 | O=C(Nc1ccncn1)C(CC1CCCC1)c1cccc(C(F)(F)F)c1 (stereo not drawn) [Example 165(A), 3-Cyclopentyl-N-pyrimidin-4-yl-2-(3-trifluoromethyl-phenyl)-propionamide]
201 to 202 | O=C(Nc1nccs1)C(CC1CCCC1)c1ccc(Br)cc1 (stereo not drawn) [Example 2, 2-(4-Bromo-phenyl)-3-cyclopentyl-N-thiazol-2-yl-propionamide]
134 to 136 | O=C(Nc1nccs1)C(CC1CCCC1)c1cccc(C(F)(F)F)c1 (stereo not drawn) [Example 88, 3-Cyclopentyl-N-thiazol-2-yl-2-(3-trifluoromethyl-phenyl)-propionamide]
44 to 45 | COc1cccc(C(CC2CCCC2)C(=O)Nc2nccs2)c1 (stereo not drawn) [Example 110, 3-Cyclopentyl-2-(3-methoxy-phenyl)-N-thiazol-2-yl-propionamide]
109 to 110 | CSc1ccc(C(CC2CCCC2)C(=O)Nc2ccc([N+](=O)[O-])cn2)cc1C(F)(F)F (stereo not drawn) [Example 154(A), 3-Cyclopentyl-2-(4-methylsulfanyl-3-trifluoromethyl-phenyl)-N-(5-nitro-pyridin-2-yl)-propionamide]
198 to 200 | O=C(Nc1nccs1)C(CC1CCCC1)c1ccc(O)cc1 (stereo not drawn) [Example 116, 3-Cyclopentyl-2-(4-hydroxy-phenyl)-N-thiazol-2-yl-propionamide]

Further lines, the molecule ahead of its results:

SMILES | melting point [°C]
O=C(Nc1nccs1)C(CC1CCCC1)c1ccc([N+](=O)[O-])cc1 (stereo not drawn) [Example 22(A), 3-Cyclopentyl-2-(4-nitro-phenyl)-N-thiazol-2-yl-propionamide] | 186 to 187
CS(=O)(=O)c1ccc(C(CC2CCCC2)C(=O)Nc2nccs2)cc1S(C)(=O)=O (stereo not drawn) [Example 79, 2-(3,4-Bis-methanesulfonyl-phenyl)-3-cyclopentyl-N-thiazol-2-yl-propionamide] | 104 to 107
O=C(O)c1ccc(NC(=O)C(CC2CCCC2)c2ccc(Cl)cc2)nc1 (stereo not drawn) [Example 47, 6-[2-(4-Chloro-phenyl)-3-cyclopentyl-propionylamino]-nicotinic acid] | 206 to 208
O=C(Nc1ccc(O)cn1)C(CC1CCCC1)c1ccc(Cl)c(Cl)c1 (stereo not drawn) [Example 51, 3-Cyclopentyl-2-(3,4-dichloro-phenyl)-N-(5-hydroxy-pyridin-2-yl)-propionamide] | 79 to 81
CS(=O)(=O)c1ccc(C(CC2CCCC2)C(=O)Nc2ccccn2)cc1 (stereo not drawn) [Example 42, 3-Cyclopentyl-2-(4-methanesulfonyl-phenyl)-N-pyridin-2-yl-propionamide] | 172 to 173
CSc1ccc(C(CC2CCCC2)C(=O)Nc2nccs2)cc1 (stereo not drawn) [Example 9, 3-Cyclopentyl-2-(4-methylsulfanyl-phenyl)-N-thiazol-2-yl-propionamide] | 195 to 196
CS(=O)(=O)c1ccc(C(CC2CCCC2)C(=O)Nc2ccccn2)cc1F (stereo not drawn) [Example 136, 3-Cyclopentyl-2-(3-fluoro-4-methanesulfonyl-phenyl)-N-pyridin-2-yl-propionamide] | 76 to 79
CS(=O)(=O)c1ccc(C(CC2CCCC2)C(=O)Nc2nc(CO)cs2)cc1 (stereo not drawn) [Example 35, 3-Cyclopentyl-N-(4-hydroxymethyl-thiazol-2-yl)-2-(4-methanesulfonyl-phenyl)-propionamide] | 124 to 126
O=C(Nc1nccnn1)C(CC1CCCC1)c1ccc(Cl)c(Cl)c1 (stereo not drawn) [Example 81, 3-Cyclopentyl-2-(3,4-dichlorophenyl)-N-[1,2,4]triazin-3-yl-propionamide] | 81 to 83
CS(=O)(=O)c1ccc(C(CC2CCCC2)C(=O)Nc2ncc(C(N)=O)s2)cc1 (stereo not drawn) [Example 134, 2-[3-Cyclopentyl-2-(4-methanesulfonyl-phenyl)-propionylamino]-thiazole-5-carboxylic acid amide] | 155 to 160
O=C(Nc1ccc(Br)cn1)[C@H](CC1CCCC1)c1ccc(Cl)c(Cl)c1 [Example 105, N-(5-Bromo-pyridin-2-yl)-3-cyclopentyl-2(R)-(3,4-dichloro-phenyl)-propionamide] | 107.3 to 109.9
Cc1ccc(NC(=O)C(CC2CCCC2)c2ccc(S(C)(=O)=O)cc2)nc1 (stereo not drawn) [Example 53(A), 3-Cyclopentyl-2-(4-methanesulfonyl-phenyl)-N-(5-methyl-pyridin-2-yl)-propionamide] | 184 to 185
O=C(Nc1ccc(C(F)(F)F)cn1)[C@H](CC1CCCC1)c1ccc(Cl)c(Cl)c1 [Example 101, 3-Cyclopentyl-2(R)-(3,4-dichloro-phenyl)-N-(5-trifluoromethyl-pyridin-2-yl)-propionamide] | 113.8 to 117.5
CCOC(=O)Cc1csc(NC(=O)C(CC2CCCC2)c2ccc(S(=O)(=O)C(F)(F)F)cc2)n1 (stereo not drawn) [Example 62, {2-[3-Cyclopentyl-2-(4-trifluoromethanesulfonyl-phenyl)-propionylamino]-thiazol-4-yl}-acetic acid ethyl ester] | 48 to 51
O=C(Nc1ncco1)C(CC1CCCC1)c1ccc(Cl)c(Cl)c1 (stereo not drawn) [Example 57, 3-Cyclopentyl-2-(3,4-dichlorophenyl)-N-oxazol-2-yl-propionamide] | 134 to 136
O=C(Nc1ccc(CO)cn1)C(CC1CCCC1)c1ccc(Cl)cc1 (stereo not drawn) [Example 50, 2-(4-Chloro-phenyl)-3-cyclopentyl-N-(5-hydroxymethyl-pyridin-2-yl)-propionamide] | 60 to 62
O=C(Nc1nccs1)C(CC1CCCC1)c1ccc(C(F)(F)F)c(F)c1 (stereo not drawn) [Example 70, 3-Cyclopentyl-2-(3-fluoro-4-trifluoromethyl-phenyl)-N-thiazol-2-yl-propionamide] | 194 to 195
O=C(Nc1nccs1)C(CC1CCCC1)c1ccc(C(F)(F)F)cc1 (stereo not drawn) [Example 8, 3-Cyclopentyl-N-thiazol-2-yl-2-(4-trifluoromethyl-phenyl)-propionamide] | 210 to 212
COC(=O)c1csc(NC(=O)C(CC2CCCC2)c2ccc(Cl)cc2)n1 (stereo not drawn) [Example 32, 2-[2-(4-Chloro-phenyl)-3-cyclopentyl-propionylamino]-thiazole-4-carboxylic acid methyl ester] | 156 to 157
O=C(Nc1ccc(Br)cn1)C(CC1CCCC1)c1ccc(Cl)c([N+](=O)[O-])c1 (stereo not drawn) [Example 164, N-(5-Bromo-pyridin-2-yl)-2-(4-chloro-3-nitro-phenyl)-3-cyclopentyl-propionamide] | 128 to 130
CS(=O)(=O)c1ccc(C(CC2CCCC2)C(=O)Nc2ccnc(=O)[nH]2)cc1C(F)(F)F (stereo not drawn) [Example 155(A), 3-Cyclopentyl-2-(4-methanesulfonyl-3-trifluoromethyl-phenyl)-N-(2-oxo-2,3-dihydro-pyrimidin-4-yl)-propionamide] | 236 to 238
CSc1ccc(C(CC2CCCC2)C(=O)Nc2ccccn2)cc1 (stereo not drawn) [Example 40, 3-Cyclopentyl-2-(4-methylsulfanyl-phenyl)-N-pyridin-2-yl-propionamide] | 127 to 128
N#Cc1ccc(C(CC2CCCC2)C(=O)Nc2nccs2)cc1 (stereo not drawn) [Example 84(A), 2-(4-Cyano-phenyl)-3-cyclopentyl-N-thiazol-2-yl-propionamide] | 64 to 66
CS(=O)(=O)c1ccc(C(CC2CCCC2)C(=O)Nc2ncc(Br)s2)cc1 (stereo not drawn) [Example 132, N-(5-Bromo-thiazol-2-yl)-3-cyclopentyl-2-(4-methanesulfonyl-phenyl)-propionamide] | 73 to 75
O=C(Nc1ccc([N+](=O)[O-])cn1)C(CC1CCCC1)c1ccc(F)c(C(F)(F)F)c1 (stereo not drawn) [Example 167(A), 3-Cyclopentyl-2-(4-fluoro-3-trifluoromethyl-phenyl)-N-(5-nitro-pyridin-2-yl)-propionamide] | 121 to 122
O=C(Nc1ccccn1)C(CC1CCCC1)c1ccc([N+](=O)[O-])cc1 (stereo not drawn) [Example 39(A), 3-Cyclopentyl-2-(4-nitro-phenyl)-N-pyridin-2-yl-propionamide] | 152 to 154
C[S+]([O-])c1ccc(C(CC2CCCC2)C(=O)Nc2nccs2)cc1 (stereo not drawn) [Example 61, 3-Cyclopentyl-2-(4-methanesulfinyl-phenyl)-N-thiazol-2-yl-propionamide] | 170 to 173
CSc1ccc([C@@H](CC2CCCC2)C(=O)Nc2cnccn2)cc1 [Example 126, 3-Cyclopentyl-2(R)-(4-methylsulfanyl-phenyl)-N-pyrazin-2-yl-propionamide] | 128 to 130
